Reference: patent US10543240B2, “Topical composition containing glycerin and yeast extract” (Johnson & Johnson Consumer Inc., priority 2016, dated 2020)

Tested on: S. epidermis (ATCC 12228)
Test: Growth of S. epidermidis under aerobic conditions, time-to-detection (BacT/Alert 3D system)
Type: cell-based, Staphylococcus epidermidis
Conditions: S. epidermidis inoculated at 1000 CFU/mL in standard aerobic bottles; test material in PBS; average of three samples; PBS control = 100
Description: The ability of four test materials to grow S. epidermis (ATCC 12228) under aerobic conditions was investigated. The materials were: 1) phosphate buffered saline buffer solution (PBS), 2) PBS containing 5% of an aqueous solution containing 0.13 weight percent of an extract of Pichia anomala grown on kiwi, 3) PBS containing 3% glycerol, and 4) PBS containing both 5% of an aqueous solution containing 0.13 weight percent of an extract of Pichia anomala grown on kiwi and 3% glycerol. The BacT/Alert 3D system (BioMerieux Inc.) was used to determine the time-to-detection (“TTD”) of S. epidermidis according to the manufacturer's instruction. S. epidermidis were inoculated at concentrations of 1000 colony-forming units (CFU)/mL into standard aerobic bottles (BioMerieux Inc.). The test materials were prepared in PBS and injected into the standard aerobic bottles at the indicated final concentration with the volume of 1 ml. Standard aerobic bottles inoculated with S. epidermidis only and 10 ml of PBS was used as control. Bottles were then inserted into the BacT/Alert 3D system until stationary growth phase. The TTD values were automatically calculated by the BacT/Alert 3D according to the growth algorism. Three samples were tested for each test material and the resulted were averaged. Relative Time-to-Detection (RTTD) was calculated as (TTD treatment-TTD control)/TTD control*100.

OCC(O)CO [3% Glycerol, glycerol]
RTTD (Relative Time-to-Detection): 92.56
